# Reference: patent US20260347364A1, “PYRAZOLO[4,3-F]QUINAZOLINE DERIVATIVES AS MODULATORS OF G12D MUTANT KRAS USEFUL FOR THE TREATMENT OF CANCER” (JAZZ PHARMACEUTICALS IRELAND LTD., priority 2023, published 2026)
# What was measured:
# KRAS G12D = target: T1, KRAS G12D (Homo sapiens, UniProt P01116, G12D); assay: HTRF nucleotide exchange assay, KRAS G12D; assay type: biochemical; settings: class symbols; for IC50: HTRF nucleotide exchange assay (NEA)
# T1 construct: aa1-188 KRAS WT, HRAS WT, NRAS WT, or KRAS containing the G12D
# KRAS WT = target: T2, KRAS WT (Homo sapiens, UniProt P01116); assay: HTRF nucleotide exchange assay, KRAS WT; assay type: biochemical; settings: class symbols; for IC50: HTRF nucleotide exchange assay (NEA)
# T2 construct: aa1-188 KRAS WT
IC50 (KRAS G12D) [nM],KRAS^WT NEA (KRAS WT),IC50 (KRAS WT) [nM],KRAS^G12D NEA (KRAS G12D),SMILES
100 to 10000,D (<49% inhibition at 10 μM),–,–,"CCc1c(F)ccc2cc(O)cc(-c3c(F)c4nc(OCC5(CN(C)CC(F)(F)F)CC5)nc(N5CCOCC(C)(O)C5)c4c4cn(C)nc34)c12 (stereo not drawn) [Example 192, 4-[4-(8-ethyl-7-fluoro-3-hydroxy-1-naphthyl)-5-fluoro-2-methyl-7-[[1-[[methyl(2,2,2-trifluoroethyl)amino]methyl]cyclopropyl]methoxy]pyrazolo[4,3-f]quinazolin-9-yl]-6-methyl-1,4-oxazepan-6-ol]"
≤ 10,–,≤ 10,–,"CCc1c(F)ccc2cc(O)cc(-c3c(F)c4nc(OCC5(CN6CCC6)CC5)nc(N5CCOCC(C)(O)C5)c4c4cn(C)nc34)c12 (stereo not drawn) [Example 214, 4-[7-[[1-(azetidin-1-ylmethyl)cyclopropyl]methoxy]-4-(8-ethyl-7-fluoro-3-hydroxy-1-naphthyl)-5-fluoro-2-methyl-pyrazolo[4,3-f]quinazolin-9-yl]-6-methyl-1,4-oxazepan-6-ol]"
–,D (<49% inhibition at 10 μM),–,D (<49% inhibition at 10 μM),"Cn1cc2c(n1)c(-c1ccc(F)c3sc(N)c(C#N)c13)cc1nc(OC[C@@]34CCCN3C[C@H](F)C4)nc(N3C4CCC3CN(CCCO)C4)c12 [Example 90, 2-amino-7-fluoro-4-[7-[[(2R,8S)-2-fluoro-1,2,3,5,6,7-hexahydropyrrolizin-8-yl]methoxy]-9-[3-(3-hydroxypropyl)-3,8-diazabicyclo[3.2.1]octan-8-yl]-2-methyl-pyrazolo[4,3-f]quinazolin-4-yl]benzothiophene-3-carbonitrile]"
≤ 10,–,≤ 10,–,"CCc1c(F)ccc2cc(O)cc(-c3c(F)c4nc(OCC5(CN(C)C)CC5)nc(N5CCC[C@@](C)(O)C5)c4c4cn(C)nc34)c12 [Example 230, (3R)-1-[7-[[1-[(dimethylamino)methyl]cyclopropyl]methoxy]-4-(8-ethyl-7-fluoro-3-hydroxy-1-naphthyl)-5-fluoro-2-methyl-pyrazolo[4,3-f]quinazolin-9-yl]-3-methyl-piperidin-3-ol]"
≤ 10,–,≤ 10,–,"CCc1c(F)ccc2cc(O)cc(-c3cc4nc(OC[C@@]56CCCN5C[C@H](F)C6)nc(N5CCCn6nc(C(=O)N7CCOCC7)cc6C5)c4c4cn(C)nc34)c12 [Example 24, [5-[4-(8-ethyl-7-fluoro-3-hydroxy-1-naphthyl)-2-methyl-7-[[(2R,8S)-2-fluoro-1,2,3,5,6,7-hexahydropyrrolizin-8-yl]methoxy]pyrazolo[4,3-f]quinazolin-9-yl]-4,6,7,8-tetrahydropyrazolo[1,5-a][1,4]diazepin-2-yl]-morpholino-methanone]"
100 to 10000,–,100 to 10000,–,"CCc1c(F)ccc2cc(O)cc(-c3cc4nc(OCC56CCCN5CCC6)nc(N5CCCOCC5)c4c4[nH]ncc34)c12 [Example 47, 5-ethyl-6-fluoro-4-[7-(1,2,3,5,6,7-hexahydropyrrolizin-8-ylmethoxy)-9-(1,4-oxazepan-4-yl)-1H-pyrazolo[3,4-f]quinazolin-4-yl]naphthalen-2-ol]"
–,D (<49% inhibition at 10 μM),–,D (<49% inhibition at 10 μM),CCc1c(F)ccc2cc(O)cc(-c3cc4nc(OCC5(CN6CCC[C@H]6C(F)(F)F)CC5)nc(N5CCCn6nc(C(=O)N(C)C)cc6C5)c4c4cn(C)nc34)c12 [Example 71]
≤ 10,–,≤ 10,–,"CCc1c(F)ccc2cc(O)cc(-c3c(F)c4nc(OCC5(CO)CC5)nc(N5CCOCC(C)(O)C5)c4c4cn(C)nc34)c12 (stereo not drawn) [Example 188, 4-[4-(8-ethyl-7-fluoro-3-hydroxy-1-naphthyl)-5-fluoro-7-[[1-(hydroxymethyl)cyclopropyl]methoxy]-2-methyl-pyrazolo[4,3-f]quinazolin-9-yl]-6-methyl-1,4-oxazepan-6-ol]"
≤ 10,–,≤ 10,–,"CCc1c(F)ccc2cc(O)cc(-c3c(F)c4nc(OC[C@@]56CCCN5C[C@H](F)C6)nc(N5CC6CCC5CN6)c4c4cn(C)nc34)c12 (stereo partly drawn) [Example 179, 4-[9-(2,5-diazabicyclo[2.2.2]octan-2-yl)-5-fluoro-2-methyl-7-[[(2R,8S)-2-fluoro-1,2,3,5,6,7-hexahydropyrrolizin-8-yl]methoxy]pyrazolo[4,3-f]quinazolin-4-yl]-5-ethyl-6-fluoro-naphthalen-2-ol]"
≤ 10,–,≤ 10,–,"CCc1c(F)ccc2cc(O)cc(-c3c(C)c4nc(OC[C@]5(C)CCCN5)nc(N5CCOCC(C)(O)C5)c4c4cn(C)nc34)c12 (stereo partly drawn) [Example 139, 4-[4-(8-ethyl-7-fluoro-3-hydroxy-1-naphthyl)-2,5-dimethyl-7-[[(2S)-2-methylpyrrolidin-2-yl]methoxy]pyrazolo[4,3-f]quinazolin-9-yl]-6-methyl-1,4-oxazepan-6-ol]"
–,D (<49% inhibition at 10 μM),–,D (<49% inhibition at 10 μM),"Cn1cc2c(n1)c(-c1ncc(F)c3sc(N)c(C#N)c13)cc1nc(OC[C@@]34CCCN3C[C@H](F)C4)nc(N3CCOCC(C)(O)C3)c12 (stereo partly drawn) [Example 107, 2-amino-7-fluoro-4-[7-[[(2R,8S)-2-fluoro-1,2,3,5,6,7-hexahydropyrrolizin-8-yl]methoxy]-9-(6-hydroxy-6-methyl-1,4-oxazepan-4-yl)-2-methyl-pyrazolo[4,3-f]quinazolin-4-yl]thieno[3,2-c]pyridine-3-carbonitrile]"
10 to 100,–,10 to 100,–,"CCc1c(F)ccc2cc(O)cc(-c3cc4nc(OC[C@@]56CCCN5C[C@H](F)C6)nc(N5CCCC(O)CC5)c4c4cn(C)nc34)c12 (stereo partly drawn) [Example 42, 1-[4-(8-ethyl-7-fluoro-3-hydroxy-1-naphthyl)-2-methyl-7-[[(2R,8S)-2-fluoro-1,2,3,5,6,7-hexahydropyrrolizin-8-yl]methoxy]pyrazolo[4,3-f]quinazolin-9-yl]azepan-4-ol]"
10 to 100,–,10 to 100,–,"CCc1c(F)ccc2cc(O)cc(-c3cc4nc(OC[C@@]56CCCN5C[C@H](F)C6)nc(N5CCOCC(O)(C(F)(F)F)C5)c4c4cn(C)nc34)c12 (stereo partly drawn) [Example 123, 4-[4-(8-ethyl-7-fluoro-3-hydroxy-1-naphthyl)-2-methyl-7-[[(2R,8S)-2-fluoro-1,2,3,5,6,7-hexahydropyrrolizin-8-yl]methoxy]pyrazolo[4,3-f]quinazolin-9-yl]-6-(trifluoromethyl)-1,4-oxazepan-6-ol]"
10 to 100,–,10 to 100,–,Cn1cc2c(n1)c(-c1cc(O)cc3ccc(F)c(F)c13)cc1nc(OC[C@@]34CCCN3C[C@H](F)C4)nc(N3CCCOCC3)c12 [Example 39]
100 to 10000,D (<49% inhibition at 10 μM),–,–,"CCc1c(F)ccc2cc(O)cc(-c3cc4nc(OC[C@@]56CCCN5C[C@H](F)C6)nc(N5CCCC(O)(C(C)C)C5)c4c4cn(C)nc34)c12 (stereo partly drawn) [Example 134, 1-[4-(8-ethyl-7-fluoro-3-hydroxy-1-naphthyl)-2-methyl-7-[[(2R,8S)-2-fluoro-1,2,3,5,6,7-hexahydropyrrolizin-8-yl]methoxy]pyrazolo[4,3-f]quinazolin-9-yl]-3-isopropyl-piperidin-3-ol]"
≤ 10,–,≤ 10,–,C#Cc1c(F)ccc2cc(O)cc(-c3cc4nc(OC[C@@]56CCCN5C[C@H](F)C6)nc(N5CCCCC(C)(O)C5)c4c4cn(C)nc34)c12 (stereo partly drawn) [Example 43]
≤ 10,–,≤ 10,–,"CCc1c(F)ccc2cc(O)cc(-c3c(F)c4nc(OCC5(CN6C[C@@H]7C[C@H]6CO7)CC5)nc(N5CCOCC(C)(O)C5)c4c4cn(C)nc34)c12 (mixture of isomers) [Example 226, 4-[4-(8-ethyl-7-fluoro-3-hydroxy-1-naphthyl)-5-fluoro-2-methyl-7-[[1-[[rac-(1S,4S)-2-oxa-5-azabicyclo[2.2.1]heptan-5-yl]methyl]cyclopropyl]methoxy]pyrazolo[4,3-f]quinazolin-9-yl]-6-methyl-1,4-oxazepan-6-ol]"
≤ 10,–,≤ 10,–,"CCc1c(F)ccc2cc(O)cc(-c3cc4nc(OCC5(C)C[C@@H](O)CN5C)nc(N5CCCn6nc(C(=O)N(C)C)cc6C5)c4c4cn(C)nc34)c12 (mixture of isomers) [Example 68, 5-[4-(8-ethyl-7-fluoro-3-hydroxy-1-naphthyl)-2-methyl-7-[rac-(4R)-4-hydroxy-1,2-dimethyl-pyrrolidin-2-yl]methoxy]pyrazolo[4,3-f]quinazolin-9-yl]-N,N-dimethyl-4,6,7,8-tetrahydropyrazolo[1,5-a][1,4]diazepine-2-carboxamide]"
≤ 10,–,100 to 10000,–,"CCc1c(F)ccc2cc(O)cc(-c3cc4nc(OC[C@@]56CCCN5C[C@H](F)C6)nc(N5C6CCC5CN(CCCO)C6)c4c4cn(C)nc34)c12 [Example 89, 5-ethyl-6-fluoro-4-[7-[[(2R,8S)-2-fluoro-1,2,3,5,6,7-hexahydropyrrolizin-8-yl]methoxy]-9-[3-(3-hydroxypropyl)-3,8-diazabicyclo[3.2.1]octan-8-yl]-2-methyl-pyrazolo[4,3-f]quinazolin-4-yl]naphthalen-2-ol]"
10 to 100,–,100 to 10000,–,"CN(C)C(=O)c1cc2n(n1)CCCN(c1nc(OC[C@@]34CCCN3C[C@H](F)C4)nc3cc(-c4cc(O)ccc4C(F)(F)F)c4nn(C)cc4c13)C2 (racemic) [Example 64, 5-[4-[5-hydroxy-2-(trifluoromethyl)phenyl]-2-methyl-7-[[rac-(2R,8S)-2-fluoro-1,2,3,5,6,7-hexahydropyrrolizin-8-yl]methoxy]pyrazolo[4,3-f]quinazolin-9-yl]-N,N-dimethyl-4,6,7,8-tetrahydropyrazolo[1,5-a][1,4]diazepine-2-carboxamide]"
100 to 10000,–,100 to 10000,–,"CCc1c(F)ccc2cc(O)cc(-c3cc4nc(OCC5CCCCN5C)nc(N5CCCOCC5)c4c4cn(C)nc34)c12 (stereo not drawn) [Example 19, 5-ethyl-6-fluoro-4-[2-methyl-7-[(1-methyl-2-piperidyl)methoxy]-(1,4-oxazepan-4-yl)pyrazolo[4,3-f]quinazolin-4-yl]naphthalen-2-ol]"
